Laboratory results: patent US20240115586A1, “THERAPEUTIC AGENT FOR PULMONARY FIBROSIS” (SANSHO CO. LTD., priority 2020, published 2024)

Tested on: bleomycin-induced pulmonary fibrosis model mice
Assay: Effect on right lung wet weight, dry weight and hydroxyproline in bleomycin-induced pulmonary fibrosis model mice
Type: in vivo, Mouse Crl:CD1(ICR)
Conditions: Day 28, mean ± S.E.M., N=9; for Dry weight of right lung: Control 0.0348 ± 0.0017, Normal 0.0236 ± 0.0007; for Wet weight of right lung: Control 0.1735 ± 0.0087, Normal 0.1224 ± 0.0029; for Hydroxyproline (right lung): Control 354.9 ± 15.1, Normal 266.9 ± 6.4
Experimental: • Japanese Pharmacopoeia: Physiological saline solution (saline solution) • (2) Test system • Mouse Crl:CD1(ICR), 45 mice, male, purchased from Charles River Japan K.K. (11 weeks old at time of purchase)
The test substance was divided into 6 mg×28 doses prior to the day of administration. Dose solution was prepared on the day of administration. To one bottle of the previously aliquoted test substance (6 mg), 6 mL of saline solution was added and mixed by inverting. The samples were heated (approximately 40° C.) and sonicated until dissolution was visually confirmed (1 mg/mL solution). The 1 mg/mL solution was divided into 0.5 mL portions, and 4.5 mL of saline solution was added. Dissolution was confirmed by inverting and mixing (0.1 mg/mL solution).
The route of administration was intraperitoneal administration.
It was administered once per day for 28 days. Administration at the time of preparation of the pulmonary fibrosis model (Day 0 to Day 4) was before administration of bleomycin.
10 mL/kg was administered intraperitoneally using a 1 mL syringe and needle (Terumo Corporation).
The bleomycin solution was administered into the tail vein of mice at a dose volume of 5 mL/kg (bleomycin dose: 15 mg/kg) once a day for 5 days. The volume of administered liquid was calculated based on the latest body weight and calculated to the nearest 0.01 mL (rounded to the third decimal place). The normal group was administered physiological saline at a volume of 5 mL/kg.
After lethal exsanguination, the right bronchial bifurcation was ligated, and only the right lung was removed. The wet weight of the excised right lung was measured. After weighing, the right lung was minced. After that, the right lung was dried in a dry heat sterilizer set at 72° C. for about 72 hours, and the dry weight of the right lung was measured. After measuring the dry weight, it was stored in an ultra-low temperature freezer (permissible range: −90 to −65° C.) until the amount of hydroxyproline was measured. The left lung was ligated and fixed after a cannula was inserted into the trachea, and a 10% phosphate-buffered formalin solution was injected through the cannula at a pressure of 15 cm H2O to expand and fix the lung tissue. Lung sampling was performed on animals from which blood collection was performed. A fixed left lung is undergoing histopathological examination.
The hydroxyproline content of the right lung cryopreserved in section (6-5) was measured. 2 mL of HCl for hydrolysis was added to the dried right lung and the sample was hydrolyzed in an autoclave at about 121° C. for 30 minutes. After that, it was neutralized with 2.5 N NaOH (pH about 6 to 7: pH test paper was used for confirmation). By measuring the tare weight in advance and measuring the weight after neutralization, the amount (g) of the sample after neutralization was calculated. The sample after neutralization was appropriately diluted with water for injection, and 2 mL of the solution was used as a sample for measurement of HYP content.
1 mL of chloramine T reagent was added to 2 mL of the HYP standard solution and the mixture was left stand at room temperature for 20 minutes. Then, 1 mL of perchloric acid reagent was added and the mixture was left stand at room temperature for 5 minutes. After adding 1 mL of p-dimethylaminobenzaldehyde reagent and heating at 60° C. for 20 minutes, the absorbance at 557 nm of the supernatant which was obtained by filtration using a filter was measured with a spectrophotometer to create a calibration curve.
For 2 mL of each sample for measurement of HYP content, the absorbance was measured in the same manner as described in Section 3.6.6.2, and the HYP content (μg/mL) was calculated from the measured values based on the calibration curve obtained in Section 3.6.6.2. Each sample for measurement of HYP content was diluted 20-fold and was measured. Single measurement was used. […]

[1] = 2ccPA 1 mg/kg intraperitoneal once per day for 28 days
[2] = 2ccPA 10 mg/kg intraperitoneal once per day for 28 days

Substance: 2-Carbacyclic phosphatidic acid [2ccPA]
- Dry weight of right lung [1]: 0.0327 ± 0.0021 g
- Wet weight of right lung [1]: 0.1599 ± 0.0113 g
- Hydroxyproline (right lung) [1]: 331.2 ± 20.0 μg/lung
- Dry weight of right lung [2]: 0.0303 ± 0.0011 g
- Wet weight of right lung [2]: 0.1458 ± 0.0044 g
- Hydroxyproline (right lung) [2]: 288.8 ± 11.1 μg/lung
